Experiments:
Test in all cases: Test B pre-/postemergence plant response
Format in all cases: in vivo
[1] = test system: johnsongrass (Sorghum halepense); details: for Johnsongrass plant response rating: 8 g ai/ha
Summary of the method: (§1)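 Seeds were sown and sprayed preemergence, while plants at 2 to 18 cm (1- to 4-leaf stage) got postemergence sprays. Compounds were formulated in a non-phytotoxic solvent mixture with surfactant. After 13 to 15 days in a greenhouse, injury was rated visually against untreated controls, 0 (no effect) to 100 (complete control).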

[2] = test system: green foxtail (Setaria viridis); details: for Foxtail, Green plant response rating: 8 g ai/ha
Summary of the method: as §1

[3] = test system: goosegrass (Eleusine indica); details: for Goosegrass plant response rating: 8 g ai/ha
Summary of the method: as §1

[4] = test system: Italian ryegrass (Lolium multiflorum); details: for Ryegrass, Italian plant response rating: 8 g ai/ha
Summary of the method: as §1

corn (Zea mays) = details: for Corn plant response rating: 8 g ai/ha
Summary of the method: as §1

[5] = test system: surinam grass (Brachiaria decumbens); details: for Surinam Grass plant response rating: 8 g ai/ha
Summary of the method: as §1

[6] = test system: common ragweed (Ambrosia elation); details: for Ragweed plant response rating: 8 g ai/ha
Summary of the method: as §1

[7] = test system: eastern black (E.B.) nightshade (Solanum ptycanthum); details: Preemergence
Summary of the method: as §1

kochia (Kochia scoparia) = details: for Kochia plant response rating: 8 g ai/ha
Summary of the method: as §1

[8] = test system: Russian thistle (Salsola iberica); details: Preemergence
Summary of the method: as §1

[9] = test system: pigweed (Amaranthus retroflexus); details: for Pigweed plant response rating: 8 g ai/ha
Summary of the method: as §1

[10] = test system: giant foxtail (Setaria faberii); details: for Foxtail, Giant plant response rating: 8 g ai/ha
Summary of the method: as §1

[11] = test system: common (oilseed) sunflower (Helianthus annuus); details: Preemergence
Summary of the method: as §1

[12] = test system: yellow nutsedge (Cyperus esculentus); details: for Nutsedge, Yellow plant response rating: 8 g ai/ha
Summary of the method: as §1

[13] = Postemergence, 16 g ai/ha, scale 0 to 100
[14] = Postemergence, 31 g ai/ha, scale 0 to 100, 0 no effect, 100 complete control
[15] = Postemergence, 62 g ai/ha, scale 0 to 100, 0 no effect, 100 complete control
[16] = Preemergence, 16 g ai/ha, scale 0 to 100 (0 no effect, 100 complete control)
[17] = Preemergence, 31 g ai/ha, 0 to 100 scale, 0 no effect, 100 complete control
[18] = Preemergence, 62 g ai/ha, scale 0 to 100
[19] = Preemergence, 31 g ai/ha, scale 0 to 100 (0 no effect, 100 complete control)
[20] = 16 g ai/ha, scale 0 to 100 (0 no effect, 100 complete control)
[21] = 31 g ai/ha, scale 0 to 100 (0 no effect, 100 complete control)

SMILES: CCCc1cc(-c2ccc(Cl)cc2)nn1-c1c(O)cnn(C)c1=O [Compound 43]
- Johnsongrass plant response rating ([1]; postemergence, 0-100 scale): 0
- Plant response rating, Johnsongrass [1, 13]: 0
- Plant response rating, Johnsongrass [1, 14]: 80
- Plant response rating, Johnsongrass [1, 15]: 100
- Plant response rating, Johnsongrass [1, 16]: 65
- Plant response rating, Johnsongrass [1, 17]: 80
- Plant response rating, Johnsongrass [1, 18]: 98
- Johnsongrass plant response rating ([1]; Preemergence, scale 0 to 100): 20
- Foxtail, Green plant response rating ([2]; postemergence, 0-100 scale): 60
- Plant response rating, Foxtail, Green [2, 13]: 75
- Plant response rating, Foxtail, Green [2, 14]: 100
- Plant response rating, Foxtail, Green [2, 15]: 100
- Plant response rating, Foxtail, Green [2, 16]: 100
- Plant response rating, Foxtail, Green [2, 17]: 100
- Plant response rating, Foxtail, Green [2, 18]: 100
- Foxtail, Green plant response rating ([2]; Preemergence, scale 0 to 100): 100
- Goosegrass plant response rating ([3]; postemergence, 0-100 scale): 60
- Plant response rating, Goosegrass [3, 13]: 70
- Plant response rating, Goosegrass [3, 14]: 75
- Plant response rating, Goosegrass [3, 15]: 85
- Plant response rating, Goosegrass [3, 16]: 75
- Plant response rating, Goosegrass [3, 17]: 98
- Plant response rating, Goosegrass [3, 18]: 100
- Goosegrass plant response rating ([3]; Preemergence, scale 0 to 100): 65
- Ryegrass, Italian plant response rating ([4]; postemergence, 0-100 scale): 80
- Plant response rating, Ryegrass, Italian [4, 13]: 90
- Plant response rating, Ryegrass, Italian [4, 14]: 100
- Plant response rating, Ryegrass, Italian [4, 15]: 100
- Plant response rating, Ryegrass, Italian [4, 16]: 90
- Plant response rating, Ryegrass, Italian [4, 19]: 90
- Plant response rating, Ryegrass, Italian [4, 18]: 90
- Ryegrass, Italian plant response rating ([4]; Preemergence, scale 0 to 100): 90
- Corn plant response rating (corn (Zea mays); postemergence, 0-100 scale): 80
- Plant response rating, Corn (corn (Zea mays); [13]): 85
- Plant response rating, Corn (corn (Zea mays); [14]): 85
- Plant response rating, Corn (corn (Zea mays); [15]): 100
- Plant response rating, Corn (corn (Zea mays); [16]): 70
- Plant response rating, Corn (corn (Zea mays); [17]): 85
- Plant response rating, Corn (corn (Zea mays); [18]): 100
- Corn plant response rating (corn (Zea mays); Preemergence, scale 0 to 100): 0
- Surinam Grass plant response rating ([5]; postemergence, 0-100 scale): 65
- Plant response rating, Surinam Grass [5, 13]: 95
- Plant response rating, Surinam Grass [5, 15]: 100
- Plant response rating, Surinam Grass [5, 16]: 90
- Plant response rating, Surinam Grass [5, 19]: 100
- Plant response rating, Surinam Grass ([5]; Preemergence, 62 g ai/ha, 0 to 100 scale, 0 no effect, 100 complete control): 100
- Surinam Grass plant response rating ([5]; Preemergence, scale 0 to 100): 0
- Ragweed plant response rating ([6]; postemergence, 0-100 scale): 0
- Plant response rating, Ragweed [6, 13]: 0
- Plant response rating, Ragweed [6, 14]: 0
- Plant response rating, Ragweed [6, 15]: 0
- Plant response rating, Ragweed [6, 16]: 0
- Plant response rating, Ragweed [6, 19]: 0
- Plant response rating, Ragweed [6, 18]: 0
- Ragweed plant response rating ([6]; Preemergence, scale 0 to 100): 0
- Plant response rating, Nightshade, E. B. [7, 20]: 0
- Plant response rating, Nightshade, E. B. [7, 21]: 0
- Plant response rating, Nightshade, E. B. ([7]; 62 g ai/ha, scale 0 to 100): 0
- Nightshade, E. B. plant response rating ([7]; 8 g ai/ha, scale 0 to 100): 0
- Kochia plant response rating (kochia (Kochia scoparia); postemergence, 0-100 scale): 0
- Plant response rating, Kochia (kochia (Kochia scoparia); [13]): 0
- Plant response rating, Kochia (kochia (Kochia scoparia); [14]): 0
- Plant response rating, Kochia (kochia (Kochia scoparia); [15]): 0
- Plant response rating, Kochia (kochia (Kochia scoparia); [16]): 0
- Plant response rating, Kochia (kochia (Kochia scoparia); [17]): 0
- Plant response rating, Kochia (kochia (Kochia scoparia); [18]): 0
- Kochia plant response rating (kochia (Kochia scoparia); Preemergence, scale 0 to 100): 0
- Plant response rating, Russian Thistle [8, 20]: 0
- Plant response rating, Russian Thistle [8, 21]: 0
- Plant response rating, Russian Thistle ([8]; 62 g ai/ha, scale 0 to 100): 0
- Russian Thistle plant response rating ([8]; 8 g ai/ha, scale 0 to 100): 0
- Pigweed plant response rating ([9]; postemergence, 0-100 scale): 0
- Plant response rating, Pigweed [9, 13]: 0
- Plant response rating, Pigweed [9, 14]: 0
- Plant response rating, Pigweed [9, 15]: 0
- Plant response rating, Pigweed [9, 16]: 0
- Plant response rating, Pigweed [9, 19]: 0
- Plant response rating, Pigweed [9, 18]: 0
- Pigweed plant response rating ([9]; Preemergence, scale 0 to 100): 0
- Foxtail, Giant plant response rating ([10]; postemergence, 0-100 scale): 85
- Plant response rating, Foxtail, Giant [10, 13]: 98
- Plant response rating, Foxtail, Giant [10, 14]: 98
- Plant response rating, Foxtail, Giant [10, 15]: 100
- Plant response rating, Foxtail, Giant [10, 16]: 100
- Plant response rating, Foxtail, Giant [10, 17]: 100
- Plant response rating, Foxtail, Giant [10, 18]: 100
- Foxtail, Giant plant response rating ([10]; Preemergence, scale 0 to 100): 95
- Plant response rating, Sunflower [11, 20]: 0
- Plant response rating, Sunflower [11, 21]: 0
- Plant response rating, Sunflower ([11]; 62 g ai/ha, scale 0 to 100): 0
- Sunflower plant response rating ([11]; 8 g ai/ha, scale 0 to 100): 0
- Nutsedge, Yellow plant response rating ([12]; postemergence, 0-100 scale): 0
- Plant response rating, Nutsedge, Yellow [12, 13]: 0
- Plant response rating, Nutsedge, Yellow [12, 14]: 0
- Plant response rating, Nutsedge, Yellow [12, 15]: 0
- Plant response rating, Nutsedge, Yellow [12, 16]: 0
- Plant response rating, Nutsedge, Yellow [12, 19]: 0
- Plant response rating, Nutsedge, Yellow [12, 18]: 0
- Nutsedge, Yellow plant response rating ([12]; Preemergence, scale 0 to 100): 0

Source: patent US20100267561A1, “HERBICIDAL PYRIDAZINONE DERIVATIVES” (priority 2007, published 2010)
